Results: patent US7329681B2, “Inhibitors of IMPDH enzyme” (Vertex Pharmaceuticals Incorporated, priority 1996, dated 2008)

biological target: IMPDH human type II (Homo sapiens, UniProt P12268); assay: IMPDH activity inhibition assay (spectrophotometric, NADH formation at 340 nm); assay type: biochemical; settings: IMPDH human type II, 15 to 50 nM enzyme, 37° C., tight-binding fit (Henderson); read-out: Ki
Experimental: We have measured the inhibition constants of each compound against IMPDH using an adaptation of the method first reported by […]. Moyed, and […]. Biol. Chem., 226, p. 339 (1957)]. We measured the inhibition constants of the compounds listed in Table III utilizing the following protocol: IMP dehydrogenase activity was assayed following an adaptation of the method first reported by […]. Moyed, H. S. and […]. Biol. Chem. 226, 339]. Enzyme activity was measured spectrophotometrically, by monitoring the increase in absorbance at 340 nm due to the formation of NADH (ε340 is 6220 M^-1 cm^-1). The reaction mixture contained 0.1 M Tris pH 8.0, 0.1 M KCl, 3 mM EDTA, 2 mM DTT, […] and enzyme (IMPDH human type II) at a concentration of 15 to 50 nM. This solution is incubated at 37° C. for 10 minutes. The reaction is started by adding NAD to a final concentration of 0.1 M and the initial rate is measured by following the linear increase in absorbance at 340 nm for 10 minutes. For reading in a standard spectrophotometer (path length 1 cm) the final volume in the cuvette is 1.0 ml. The assay has also been adapted to a 96 well microtiter plate format; in this case the concentrations of all the reagents remain the same and the final volume is decreased to 200 μl. For the analysis of inhibitors, the compound in question is dissolved in DMSO to a final concentration of 20 mM and added to the initial assay mixture for preincubation with the enzyme at a final volume of 2-5% (v/v). The reaction is started by the addition of NAD, and the initial rates measured as above. […] The designation “ND” is used where a given compound was not tested.

Structure (SMILES)	Ki
O=C(NCc1ccccc1)Nc1ccc(-c2cnco2)cc1 [Compound 1]	1000 to 10000 nM
O=C(Nc1ccc(-c2cnco2)cc1)Nc1ccc(F)c(F)c1 [Compound 4]	> 10000 nM
O=C(Nc1ccc(-c2cnco2)cc1)Nc1cccc(F)c1 [Compound 20]	1000 to 10000 nM
O=C(Nc1ccc(Oc2ccccc2)cc1)Nc1ccc(-c2cnco2)cc1 [Compound 21]	1000 to 10000 nM
O=C(Nc1ccc(-c2cnco2)cc1)Nc1cccc(Cl)c1 [Compound 22]	1000 to 10000 nM
O=C(Nc1ccc(-c2cnco2)cc1)Nc1ccc(F)c(Cl)c1 [Compound 23]	1000 to 10000 nM
O=C(Nc1ccc(-c2cnco2)cc1)Nc1cccc(CO)c1 [Compound 25]	1000 to 10000 nM
C#Cc1cccc(NC(=O)Nc2ccc(-c3cnco3)cc2)c1 [Compound 26]	1000 to 10000 nM
O=C(Nc1ccc(-c2cnco2)cc1)Nc1cccc(O)c1 [Compound 27]	1000 to 10000 nM
COc1ccc(NC(=O)Nc2cccc(C)c2)cc1OC [Compound 28]	1000 to 10000 nM
O=C(Nc1ccc(-c2cnco2)cc1)Nc1cccnc1 [Compound 29]	> 10000 nM
O=C(Nc1ccncc1)Nc1ccc(-c2cnco2)cc1 [Compound 30]	1000 to 10000 nM
Cc1cnc(NC(=O)Nc2ccc(-c3cnco3)cc2)s1 [Compound 31]	> 10000 nM
Cc1cccc(NC(=O)Nc2cccc([N+](=O)[O-])c2)c1 [Compound 32]	> 10000 nM
Cc1cccc(NC(=O)Nc2ccc(C#N)cc2)c1 [Compound 33]	> 10000 nM
COc1ccc(NC(=O)Nc2cccc(Br)c2)cc1OC [Compound 34]	1000 to 10000 nM
COc1ccc(Cl)cc1NC(=O)Nc1ccc(OC)c(OC)c1 [Compound 35]	1000 to 10000 nM
COc1ccc(NC(=O)Nc2cccc(F)c2)cc1OC [Compound 36]	1000 to 10000 nM
CCc1cccc(NC(=O)Nc2ccc(OC)c(OC)c2)c1 [Compound 37]	1000 to 10000 nM
COc1ccc(NC(=O)Nc2cccc(SC)c2)cc1OC [Compound 38]	> 10000 nM

Structure (SMILES)	Ki
O=C(Nc1ccc(-c2cnco2)cc1)Nc1ccc2c(c1)OCCO2 [Compound 39]	> 10000 nM
Cc1cc(NC(=O)Nc2ccc(-c3cnco3)cc2)ccc1[N+](=O)[O-] [Compound 40]	1000 to 10000 nM
O=C(Nc1ccc(-c2cnco2)cc1)Nc1ccc([N+](=O)[O-])c(C(F)(F)F)c1 [Compound 41]	1000 to 10000 nM
O=C(Nc1ccccc1)Nc1ccc(-c2cnco2)c(F)c1 [Compound 45]	1000 to 10000 nM
CN(C)c1cccc(NC(=O)Nc2ccc(-c3cnco3)cc2)c1 [Compound 49]	1000 to 10000 nM
CC1(c2cccc(NC(=O)Nc3ccc(-c4cnco4)cc3)c2)OCCO1 [Compound 50]	> 10000 nM
NC(=O)c1cccc(NC(=O)Nc2ccc(-c3cnco3)cc2)c1 [Compound 51]	> 10000 nM
COc1ccc(NC(=O)Nc2cccc([N+](=O)[O-])c2)cc1Cl [Compound 52]	1000 to 10000 nM
O=C(Nc1ccc(-c2cnco2)cc1)Nc1cccc(-c2ccoc2)c1 [Compound 53]	1000 to 10000 nM
O=C(O)Cc1cccc(NC(=O)Nc2ccc(-c3cnco3)cc2)c1 [Compound 54]	1000 to 10000 nM
Cc1cc(N)cc(NC(=O)Nc2ccc(-c3cnco3)cc2)c1 [Compound 58]	1000 to 10000 nM
O=C(Nc1ccc(-c2cnco2)c(Cl)c1)Nc1ccc(-c2cnco2)c(Cl)c1 [Compound 61]	> 10000 nM
Cc1cc(NC(=O)Nc2ccc(-c3cnco3)c(Cl)c2)ccn1 [Compound 62]	1000 to 10000 nM
O=C(O)Cc1cccc(NC(=O)Nc2ccc(-c3cnco3)c(Cl)c2)c1 [Compound 63]	1000 to 10000 nM
Cc1ncc(-c2cccc(NC(=O)Nc3ccc(-c4cnco4)cc3)c2)cn1 [Compound 66]	1000 to 10000 nM
O=C(Nc1ccc(-c2cnco2)cc1)Nc1cccc(-c2cnco2)c1 [Compound 67]	1000 to 10000 nM
Cc1cccc(NC(=O)Nc2ccc(C#N)c(Cl)c2)c1 [Compound 70]	1000 to 10000 nM
COC(=O)Nc1cccc(NC(=O)Nc2ccc(-c3cnco3)c(Cl)c2)c1 [Compound 71]	1000 to 10000 nM
CC(=O)Nc1cccc(NC(=O)Nc2ccc(-c3cnco3)c(Cl)c2)c1 [Compound 72]	1000 to 10000 nM

The next lines start with the values.

Ki	Structure (SMILES)
0.01 to 50 nM	COc1cc(NC(=O)Nc2cccc(CNC(=O)OC3CCCCO3)c2)ccc1-c1cnco1 (racemic) [Compound 142]
51 to 1000 nM	O=C(Nc1ccc(-c2cnco2)cc1)Nc1ccsc1 [Compound 3]
1000 to 10000 nM	CSc1cccc(NC(=O)Nc2ccc(-c3cnco3)cc2)c1 [Compound 6]
51 to 1000 nM	O=C(Nc1ccc(-c2cnco2)cc1)Nc1cccc(Br)c1 [Compound 7]
1000 to 10000 nM	N#Cc1cccc(NC(=O)Nc2ccc(-c3cnco3)cc2)c1 [Compound 8]
1000 to 10000 nM	O=C(Nc1ccc(-c2cnco2)cc1)Nc1ccc(Cl)c(C(F)(F)F)c1 [Compound 9]
1000 to 10000 nM	Cc1c(Cl)cccc1NC(=O)Nc1ccc(-c2cnco2)cc1 [Compound 10]
1000 to 10000 nM	COc1ccc(C)cc1NC(=O)Nc1ccc(-c2cnco2)cc1 [Compound 11]
1000 to 10000 nM	COc1ccccc1NC(=O)Nc1ccc(-c2cnco2)cc1 [Compound 12]
1000 to 10000 nM	COc1cccc(NC(=O)Nc2ccc(-c3cnco3)cc2)c1 [Compound 13]
1000 to 10000 nM	COc1ccc(OC)c(NC(=O)Nc2ccc(-c3cnco3)cc2)c1 [Compound 14]
1000 to 10000 nM	O=C(Nc1ccc(-c2cnco2)cc1)Nc1cccc([N+](=O)[O-])c1 [Compound 15]
1000 to 10000 nM	O=C(Nc1ccc(-c2cnco2)cc1)Nc1ccc([N+](=O)[O-])cc1 [Compound 16]
51 to 1000 nM	Cc1cccc(NC(=O)Nc2ccc(-c3cnco3)cc2)c1 [Compound 17]
1000 to 10000 nM	O=C(Nc1ccc(-c2cnco2)cc1)Nc1cccc(C(F)(F)F)c1 [Compound 18]
1000 to 10000 nM	O=C(Nc1ccc(-c2cnco2)cc1)Nc1ccccc1C(F)(F)F [Compound 19]

Ki	Structure (SMILES)
51 to 1000 nM	Nc1cccc(NC(=O)Nc2ccc(-c3cnco3)cc2)c1 [Compound 24]
51 to 1000 nM	O=C(Nc1ccccc1)Nc1ccc(-c2cnco2)c(Cl)c1 [Compound 42]
51 to 1000 nM	Cc1cccc(NC(=O)Nc2ccc(-c3cnco3)c(Cl)c2)c1 [Compound 43]
51 to 1000 nM	Cc1cccc(NC(=O)Nc2ccc(-c3cnco3)c(F)c2)c1 [Compound 46]
51 to 1000 nM	COC(=O)Cc1cccc(NC(=O)Nc2ccc(-c3cnco3)cc2)c1 [Compound 47]
0.01 to 50 nM	COc1cc(NC(=O)Nc2cccc(C)c2)ccc1-c1cnco1 [Compound 55]
51 to 1000 nM	COC(=O)Cc1cccc(NC(=O)Nc2ccc(-c3cnco3)c(Cl)c2)c1 [Compound 57]
0.01 to 50 nM	COc1cc(NC(=O)Nc2cccc(N)c2)ccc1-c1cnco1 [Compound 59]
51 to 1000 nM	Cc1cccc(NC(=O)Nc2ccc(-c3cnco3)c(Br)c2)c1 [Compound 60]
51 to 1000 nM	O=C(Nc1cccc([N+](=O)[O-])c1)Nc1ccc(-c2cnco2)c(Br)c1 [Compound 64]
51 to 1000 nM	Nc1cccc(NC(=O)Nc2ccc(-c3cnco3)c(Br)c2)c1 [Compound 65]
51 to 1000 nM	O=C(Nc1ccc(-c2cnco2)c(Cl)c1)Nc1cccs1 [Compound 68]
51 to 1000 nM	O=C(Nc1ccsc1)Nc1ccc(-c2cnco2)c(Cl)c1 [Compound 69]
51 to 1000 nM	O=C(Nc1cccc(I)c1)Nc1ccc(-c2cnco2)c(Cl)c1 [Compound 73]
51 to 1000 nM	Cc1cc(NC(=O)Nc2ccccc2)ccc1-c1cnco1 [Compound 74]
